# According to ChEMBL document CHEMBL5537118, “Synthesis of cinnamoyl tethered indoline derivatives with anti-inflammatory and antioxidant activities” (Eur J Med Chem, 2024):
# The source made the active and inactive calls. No cut-off for these calls is given here.
# Tests used:
# [1] = test system: Mus musculus; assay: Antiinflammatory activity in carrageenan-induced Kunming mouse model of paw edema assessed as paw volume at 1 mg/kg, ip pretreated for 1 hr followed by carrageenan administration and measured after 3 hrs by digital plethysmometer (reference value: 0.377 +/- 0.018 mL); format: functional; details: time 4 hrs
# [2] = test system: Mus musculus; assay: Antiinflammatory activity in carrageenan-induced Kunming mouse model of paw edema assessed as paw volume at 10 mg/kg, ip pretreated for 1 hr followed by carrageenan administration and measured after 1 hr by digital plethysmometer (reference value: 0.395 +/- 0.017 mL); format: functional; details: time 2 hrs
# [3] = test system: RAW264.7; assay: Antioxidant activity in H2O2-stimulated mouse RAW264.7 cells assessed as protection against cell damage at 2 uM pretreated for 30 mins followed by H2O2 stimulation and measured after 4 hrs by MTT assay relative to control; format: functional; details: time 4.5 hrs
# [4] = test system: RAW264.7; assay: Antiinflammatory activity in LPS-induced mouse RAW264.7 cells assessed as inhibition of NO production pretreated for 1 hr followed by LPS addition and measured after 24 hrs by griess reagent based assay; format: functional, cell-based
# [5] = test system: RAW264.7; assay: Inhibition of ROS burst in rotenone-stimulated mouse RAW264.7 cells assessed as reduction in ROS level at 0.5 to 2 uM pretreated for 30 mins followed by rotenone addition and measured after 4 hrs by DCFH-DA staining based flow cytometry analysis; format: functional, cell-based; details: dose 0.5-2 µM, time 4.5 hrs
# [6] = test system: RAW264.7; assay: Inhibition of ROS burst in rotenone-stimulated mouse RAW264.7 cells assessed as reduction in ROS level at 1 uM pretreated for 30 mins followed by rotenone addition and measured after 4 hrs by DCFH-DA staining based flow cytometry analysis relative to control; format: functional; details: time 4.5 hrs
# [7] = test system: RAW264.7; assay: Effect on HO-1 protein expression in mouse RAW264.7 cells at 0.5 to 2 uM incubated for 24 hrs by Western blot analysis; format: functional, cell-based; details: dose 0.5-2 µM
# [8] = test system: RAW264.7; assay: Antioxidant activity in LPS-induced mouse RAW264.7 cells assessed as upregulation of HO-1 protein expression incubated for 24 hrs by Western blot analysis; format: functional, cell-based; details: dose 0.5-2 µM
# [9] = test system: RAW264.7; assay: Antiinflammatory activity in LPS-induced mouse RAW264.7 cells assessed as reduction in IL-6 level incubated for 24 hrs by ELISA; format: functional, cell-based
# [10] = test system: RAW264.7; assay: Antiinflammatory activity in LPS-induced mouse RAW264.7 cells assessed as inhibition of iNOS protein expression at around 2 uM incubated for 24 hrs by Western blot analysis relative to control; format: functional
# [11] = test system: RAW264.7; assay: Inhibition of NF-kappaB activation in LPS-induced mouse RAW264.7 cells assessed as reduction in IkappaBalpha degradation at 0.5 to 2 uM by Western blot analysis; format: cell-based; details: dose 0.5-2 µM
# [12] = test system: RAW264.7; assay: Inhibition of NF-kappaB activation in LPS-induced mouse RAW264.7 cells assessed as inhibition of p65 phosphorylation by measuring reduction in p-p65/p65 expression at 0.5 to 2 uM by Western blot analysis; format: cell-based; details: dose 0.5-2 µM
# [13] = test system: Mus musculus; assay: Antiinflammatory activity in carrageenan-induced Kunming mouse model of paw edema assessed as paw volume at 10 mg/kg, ip pretreated for 1 hr followed by carrageenan administration and measured immediately by digital plethysmometer (reference value: 0.116 +/- 0.042 mL); format: functional
# [14] = test system: Mus musculus; assay: Antiinflammatory activity in carrageenan-induced Kunming mouse model of paw edema assessed as paw volume at 1 mg/kg, ip pretreated for 1 hr followed by carrageenan administration and measured after 1 hr by digital plethysmometer (reference value: 0.395 +/- 0.017 mL); format: functional; details: time 2 hrs
# [15] = test system: Mus musculus; assay: Antiinflammatory activity in carrageenan-induced Kunming mouse model of paw edema assessed as paw volume at 10 mg/kg, ip pretreated for 1 hr followed by carrageenan administration and measured after 5 hrs by digital plethysmometer (reference value: 0.362 +/- 0.016 mL); format: functional; details: time 6 hrs
# [16] = test system: Mus musculus; assay: Antiinflammatory activity in carrageenan-induced Kunming mouse model of paw edema assessed as paw volume at 30 mg/kg, ip pretreated for 1 hr followed by carrageenan administration and measured after 5 hrs by digital plethysmometer (reference value: 0.362 +/- 0.016 mL); format: functional; details: time 6 hrs
# [17] = test system: Mus musculus; assay: Antiinflammatory activity in carrageenan-induced Kunming mouse model of paw edema assessed as edema inhibition at 10 mg/kg, ip pretreated for 1 hr followed by carrageenan administration and measured after 1 hr relative to control; format: functional; details: time 2 hrs
# [18] = test system: Mus musculus; assay: Antiinflammatory activity in carrageenan-induced Kunming mouse model of paw edema assessed as edema inhibition at 1 mg/kg, ip pretreated for 1 hr followed by carrageenan administration and measured after 3 hrs relative to control; format: functional; details: time 4 hrs
# [19] = test system: Mus musculus; assay: Antiinflammatory activity in carrageenan-induced Kunming mouse model of paw edema assessed as edema inhibition at 30 mg/kg, ip pretreated for 1 hr followed by carrageenan administration and measured after 3 hrs relative to control; format: functional; details: time 4 hrs
# [20] = test system: Mus musculus; assay: Antiinflammatory activity in carrageenan-induced Kunming mouse model of paw edema assessed as edema inhibition at 1 mg/kg, ip pretreated for 1 hr followed by carrageenan administration and measured after 5 hrs relative to control; format: functional; details: time 6 hrs
# [21] = test system: Mus musculus; assay: Antiinflammatory activity in carrageenan-induced Kunming mouse model of paw edema assessed as edema inhibition at 10 mg/kg, ip pretreated for 1 hr followed by carrageenan administration and measured after 5 hrs relative to control; format: functional; details: time 6 hrs
# [22] = test system: Mus musculus; assay: Antiinflammatory activity in carrageenan-induced Kunming mouse model of paw edema assessed as edema inhibition at 30 mg/kg, ip pretreated for 1 hr followed by carrageenan administration and measured after 5 hrs relative to control; format: functional; details: time 6 hrs
# [23] = test system: Mus musculus; assay: Antiinflammatory activity in carrageenan-induced Kunming mouse model of paw edema assessed as paw volume at 30 mg/kg, IG pretreated for 1 hr followed by carrageenan administration and measured after 1 hr by digital plethysmometer (reference value: 0.407 +/- 0.023 mL); format: functional; details: time 2 hrs
# [24] = test system: Mus musculus; assay: Antiinflammatory activity in carrageenan-induced Kunming mouse model of paw edema assessed as paw volume at 30 mg/kg, IG pretreated for 1 hr followed by carrageenan administration and measured after 3 hrs by digital plethysmometer (reference value: 0.365 +/- 0.044 mL); format: functional; details: time 4 hrs
# [25] = test system: Mus musculus; assay: Antiinflammatory activity in carrageenan-induced Kunming mouse model of paw edema assessed as edema inhibition at 30 mg/kg, IG pretreated for 1 hr followed by carrageenan administration and measured after 1 hr relative to control; format: functional; details: po, time 2 hrs
# [26] = test system: Mus musculus; assay: Antiinflammatory activity in carrageenan-induced Kunming mouse model of paw edema assessed as edema inhibition at 30 mg/kg, IG pretreated for 1 hr followed by carrageenan administration and measured after 3 hrs relative to control; format: functional; details: po, time 4 hrs
# [27] = test system: Mus musculus; assay: Antiinflammatory activity in carrageenan-induced Kunming mouse model of paw edema assessed as reduction in iNOS protein expression in paw tissue at 1 to 30 mg/kg, ip pretreated for 1 hr followed by carrageenan administration and measured after 5 hrs by Western blot analysis; format: functional, organism-based; details: dose 1-30 mg/kg, time 6.0 hrs
# [28] = test system: Mus musculus; assay: Antioxidant activity in ip dosed carrageenan-induced Kunming mouse model of paw edema assessed as increase in HO-1 protein expression in paw tissue pretreated for 1 hr followed by carrageenan administration and measured after 5 hrs by Western blot analysis; format: functional, organism-based; details: dose 1-30 mg/kg, time 6.0 hrs
# [29] = test system: Mus musculus; assay: Antioxidant activity in carrageenan-induced Kunming mouse model of paw edema assessed as reduction in MDA level in paw tissue at 1 to 30 mg/kg, ip pretreated for 1 hr followed by carrageenan administration and measured after 5 hrs by ELISA; format: functional, organism-based; details: dose 1-30 mg/kg, time 6.0 hrs
smiles,measurement,setting,value
O=C(/C=C/c1ccc(O)c(O)c1)NCCCN1CCc2cc(Cl)ccc21,Activity,[1],0.267 mL
same,Activity,[2],0.189 mL
same,Activity,[3],~100%
same,IC50,[4],900 nM
same,inhibition,[5],Active
same,inhibition at 1 µM,[6],~100%
same,Activity,[7],inactive
same,Activity,[8],Active
same,Activity,[9],Dose-Dependent Effect
same,IC50,"[9]; RAW264.7, 24 h",1730 nM
same,inhibition at 2 µM,[10],50%
same,inhibition,[11],Active
same,inhibition,[12],Active
same,Activity,[13],0.128 mL
same,Activity,[14],0.32 mL
same,Activity,[15],0.155 mL
same,Activity,[16],0.137 mL
same,inhibition in vivo at 10 mg/kg,[17],75.7%
same,inhibition in vivo at 1 mg/kg,[18],45.1%
same,inhibition in vivo at 30 mg/kg,[19],95.9%
same,inhibition in vivo at 1 mg/kg,[20],57.3%
same,inhibition in vivo at 10 mg/kg,[21],86.6%
same,inhibition in vivo at 30 mg/kg,[22],94.1%
same,Activity,[23],0.339 mL
same,Activity,[24],0.243 mL
same,inhibition in vivo at 30 mg/kg,[25],24.6%
same,inhibition in vivo at 30 mg/kg,[26],50%
same,Activity,[27],Active
same,Activity,[28],Dose-Dependent Effect
same,Activity,[29],Active
